Experimental data reported in patent publication US6599944B1, “Ophtalmic compound with extended dwell time on the eye” (Bausch & Lomb Incorporated, priority 1996, dated 2003).

System: eye of experimental rabbits
Experiment: long-term (5 weeks) eye tolerability test of preserved ophthalmic gel compositions
Assay type: in vivo, rabbits (Charles River)
Protocol: Long-term tests were carried out on experimental rabbits (Charles River) with the compositions of Example 1 and 2. In parallel, comparative tests were carried out with a corresponding control group in which the compositions employed were in every respect the same but differed with regard to the preservative. Instead of benzyllauryldimethylammonium chloride, on the one hand benzalkonium chloride was used in the same concentration, and on the other hand, thiomersal (standard concentration) =40 μg/g was used.

[1] = Carbopol gel, benzalkonium chloride in same concentration as Examples 1 and 2, thiomersal 40 μg/g

## C[CH2][Hg][S]c1ccccc1C(=O)[O-].[Na+] [thiomersal]
[1]
  damage to the tissue of the eye at the end of the test: in some cases also damage to the eye
  irritation in the eye at the end of the test: severe irritation
Control groups with other preservative
  rabbits showing severe irritation at the end of the test: seven of eight
